According to patent US7449545B2, “Antimicrobial bolisin peptides” (IPF Pharmaceuticals GmbH, priority 2001, dated 2008):
Ends that are not written are not given here.

Tests used:
Format in all cases: cell-based
[1] = tested on: Enterococcus faecalis ATCC 51299 (vancomycin-resistant); conditions: ATCC 51299, 2 h
Text: (§1) The bolisin analogues of the present invention were examined for their suitability as antibiotic therapeutical agents by means of various biological tests. Thus, the chemically synthesized peptides were examined for their antimicrobial effectiveness against three Gram-positive and three Gram-negative bacterial strains as well as against a yeast.
(§2) The following microorganisms were used: • Gram-positive: Staphylococcus aureus ATCC 25923 • Enterococcus faecalis ATCC 51299 (vancomycin-resistant) • Streptococcus pneumoniae DSM 11865 (penicillin-resistant) • Gram-negative: Escherichia coli ATCC 25922 • Pseudomonas aeruginosa ATCC 9027 • Klebsiella pneumoniae ATCC 10031 • Yeast: Candida albicans ATCC 10231
(§3) The antibiotic activity of bolisin analogues was examined by determining the minimum inhibition concentration. […] This method allows to obtain a quantitative result about the antimicrobial potency of the peptides. These examinations were performed by analogy with the recommendations (M7-A3) edited by the NCCLS (National Committee for Clinical Laboratory Standards) by applying a dilution test in a liquid medium using chemically synthesized peptides (peptide sequences according to claims 1 to 3). Mueller Hinton Broth was used as the test medium according to the NCCLS recommendations unless indicated otherwise. […] The minimum inhibition concentrations are stated in [μg/ml].
(§4) A complete growth inhibition could not be achieved in this case. For determining the minimum inhibition concentration, the following microorganisms were used: • 1. Staphylococcus aureus ATCC 25923 • 2. Enterococcus faecalis ATCC 51299 (vancomycin-resistant) • 3. Streptococcus pneumoniae DSM 11865 (penicillin-resistant) • 4. Escherichia coli ATCC 25922 • 5. Pseudomonas aeruginosa ATCC 9027 • 6. Klebsiella pneumoniae ATCC 10031 • 7. Candida albicans ATCC 10231

[2] = tested on: Klebsiella pneumoniae ATCC 10031; conditions: ATCC 10031, 2 h
Text: as §1, §2, §3, §4

[3] = tested on: Escherichia coli ATCC 25922; conditions: ATCC 25922, 2 h
Text: as §1, §2, §3, §4

[4] = tested on: Staphylococcus aureus ATCC 25923; conditions: ATCC 25923, 2 h
Text: as §1, §2, §3, §4

[5] = tested on: Candida albicans ATCC 10231; conditions: for minimum inhibition concentration: ATCC 10231, 2 h; for peptide concentration giving 75% inhibition of growth (value in parentheses): Mueller Hinton Broth, complete growth inhibition not achieved
Text: as §1, §2, §3, §4

[6] = tested on: Streptococcus pneumoniae DSM 11865 (penicillin-resistant); conditions: DSM 11865, 2 h
Text: as §1, §2, §3, §4

[7] = tested on: Pseudomonas aeruginosa ATCC 9027; conditions: Mueller Hinton Broth; complete growth inhibition not achieved
Text: as §1, §2
The antibiotic activity of bolisin analogues was examined by determining the minimum inhibition concentration. The minimum inhibition concentration of an analogue designates the lowest peptide concentration which is required to inhibit the growth of microorganisms completely after an incubation time of 18±2 h. This method allows to obtain a quantitative result about the antimicrobial potency of the peptides. These examinations were performed by analogy with the recommendations (M7-A3) edited by the NCCLS (National Committee for Clinical Laboratory Standards) by applying a dilution test in a liquid medium using chemically synthesized peptides (peptide sequences according to claims 1 to 3). Mueller Hinton Broth was used as the test medium according to the NCCLS recommendations unless indicated otherwise. […] The minimum inhibition concentrations are stated in [μg/ml].
as §4

| Substance | minimum inhibition concentration [1] [µg/mL] | minimum inhibition concentration [2] [µg/mL] | minimum inhibition concentration [3] [µg/mL] | minimum inhibition concentration [4] [µg/mL] | minimum inhibition concentration [5] [µg/mL] | minimum inhibition concentration [6] [µg/mL] | peptide concentration giving 75% inhibition of growth (value in parentheses) [7] | peptide concentration giving 75% inhibition of growth (value in parentheses) [5] |
| --- | --- | --- | --- | --- | --- | --- | --- | --- |
| YIVRKIRSAWKRWKALK-OH [BOL-79, YIVRKIRSAWKRWKALK] | >300 | 2.35 | 3.125 | 9.375 | 4.7 | 300 | (4.7) μg/ml | – |
| YIVWKIRSARKRRKALK-OH [BOL-74, YIVWKIRSARKRRKALK] | 150 | 18.75 | 300 | 300 | 75 | 150 | (12.5) μg/ml | – |
| YIVWKIRSAWKRSKALK-OH [BOL-75, YIVWKIRSAWKRSKALK] | 200 | 75 | 75 | 150 | 37.5 | 150 | (37.5) μg/ml | – |
| YIVWKIRSAWKRWKALK-OH [BOL-82, YIVWKIRSAWKRWKALK] | 75 | 12.5 | 18.75 | 18.75 | 9.375 | 37.5 | (9.375) μg/ml | – |
| YIVYKIRRAWKRSKALK-OH [BOL-53, YIVYKIRRAWKRSKALK] | 200 | 100 | 200 | 150 | – | 200 | (75) μg/ml | (37.5) μg/ml |
| YIVYKIRRAWKRWKALK-OH [BOL-55, YIVYKIRRAWKRWKALK] | 50 | 3.125 | 12.5 | 12.5 | 9.375 | 37.5 | (9.375) μg/ml | – |
| YIVYKIRSAKKRKKALK-OH [BOL-56, YIVYKIRSAKKRKKALK] | >300 | 300 | >300 | >300 | – | >300 | (200) μg/ml | (300) μg/ml |
| YIVYKIRSAKKRWKALK-OH [BOL-57, YIVYKIRSAKKRWKALK] | >300 | 300 | >300 | >300 | 300 | >300 | (200) μg/ml | – |
| YIVYKIRSARKRWKAL [BOL-68, YIVYKIRSARKRWKAL] | 200 | 300 | 200 | 200 | 200 | 300 | (200) μg/ml | – |
| YIVYKIRSARKRWKALK-OH [BOL-46, YIVYKIRSARKRWKALK] | 200 | 150 | 200 | 300 | 150 | 200 | (100) μg/ml | – |
